Assay results published in US9034886B2, “4-aminoquinazoline derivatives and uses thereof” (Shanghai Institute of Pharmaceutical Industry, priority 2011, dated 2015).

Assays:
[1] = system: Hut78 T lymphocytic leukemia cells; assay: In vitro anti-proliferative effect, CCK-8 method, Hut78; type: cell-based; conditions: Homo sapiens, HuT78, read-out: Hut-78 (inhibition %)
Experimental: (§1) The inhibitory activities of the compounds towards Hut78 T lymphocytic leukemia cells, Jurkat E6-1 human T-cell lymphoma, PANC-1 human pancreatic cancer cells, A549 human lung cancer cells, K562 human chronic myelogenous leukemia cells, Hep3B2.1-7 human liver cancer cells, MDA-MB-435s human breast cancer cells. Colo320 human colorectal cancer cell lines, and PC-3 human prostate cancer at two concentrations of 100 μM and 10 μM were determined. The inhibition percentages were obtained through CCK-8 method.

[2] = system: Jurkat E6-1 human T-cell lymphoma; assay: In vitro anti-proliferative effect, CCK-8 method, Jurkat E6-1; type: cell-based; conditions: Homo sapiens, Jurkat E6.1
Experimental: as §1

[3] = system: A549 human lung cancer cells; assay: In vitro anti-proliferative effect, CCK-8 method, A549; type: cell-based; conditions: Homo sapiens, A549
Experimental: as §1

[4] = system: MDA-MB-435s human breast cancer cells; assay: In vitro anti-proliferative effect, CCK-8 method, MDA-MB-435s; type: cell-based; conditions: Homo sapiens, MDA-MB-435S
Experimental: as §1

HDACs = assay: In vitro inhibition of HDACs (HDAC Inhibitor Drug Screening Kit, Biovision K340-100); type: biochemical; conditions: for inhibitory activity on HDACs compared with MS-275: concentrations of 2 mM, 200 μM, and 40 μM
Experimental: The in vitro inhibitory activities of the compounds towards HDACs were tested according to the instructions in the HDAC Inhibitor Drug Screening Kit (Biovision/Catalog #K340-100).
(1) The compounds to be tested were each individually prepared as 2 mM, 200 μM and 40 μM solutions and their inhibitory activities at these concentrations were tested.

[5] = system: Colo320 human colorectal cancer cell lines; assay: In vitro anti-proliferative effect, CCK-8 method, Colo320; type: cell-based; conditions: Homo sapiens, COLO 320, Colo320 cell strain, CCK-8 method; for inhibition at 10 µM: compound at 10 μM; for inhibition at 100 µM: compound at 100 μM
Experimental: as §1

[6] = system: Hep3B2.1-7 human liver cancer cells; assay: In vitro anti-proliferative effect, CCK-8 method, Hep3B; type: cell-based; conditions: Homo sapiens, Hep3B cell strain, CCK-8 method; for inhibition at 10 µM: compound at 10 μM; for inhibition at 100 µM: compound at 100 μM
Experimental: as §1

[7] = system: K562 human chronic myelogenous leukemia cells; assay: In vitro anti-proliferative effect, CCK-8 method, K562; type: cell-based; conditions: Homo sapiens, K562
Experimental: as §1

[8] = system: PC-3 human prostate cancer; assay: In vitro anti-proliferative effect, CCK-8 method, PC-3; type: cell-based; conditions: Homo sapiens, PC-3 cell strain, CCK-8 method; for inhibition at 10 µM: compound at 10 μM; for inhibition at 100 µM: compound at 100 μM
Experimental: as §1

[9] = system: PANC-1 human pancreatic cancer cells; assay: In vitro anti-proliferative effect, CCK-8 method, PANC-1; type: cell-based; conditions: Homo sapiens, PANC-1
Experimental: as §1

HDAC1 = HDAC1 (Homo sapiens (Human), UniProt Q13547); assay: In vitro inhibition of subtype HDAC1 (HDAC1 Inhibitor Drug Screening Kit, Biovision); type: biochemical
Experimental: The in vitro inhibitory activities of the compounds towards the subtype HDAC1 were tested according to the instructions in the HDAC1 Inhibitor Drug Screening Kit (Biovision).
(1) The compounds to be tested were each individually prepared as 10 μM and 1 μM solutions and their inhibitory activities at these concentrations were tested.
Each dilution sample was placed in two wells and the enzyme inhibition IC50 of the compound was tested.

Sequence of HDAC1 (Q13547 whole entry): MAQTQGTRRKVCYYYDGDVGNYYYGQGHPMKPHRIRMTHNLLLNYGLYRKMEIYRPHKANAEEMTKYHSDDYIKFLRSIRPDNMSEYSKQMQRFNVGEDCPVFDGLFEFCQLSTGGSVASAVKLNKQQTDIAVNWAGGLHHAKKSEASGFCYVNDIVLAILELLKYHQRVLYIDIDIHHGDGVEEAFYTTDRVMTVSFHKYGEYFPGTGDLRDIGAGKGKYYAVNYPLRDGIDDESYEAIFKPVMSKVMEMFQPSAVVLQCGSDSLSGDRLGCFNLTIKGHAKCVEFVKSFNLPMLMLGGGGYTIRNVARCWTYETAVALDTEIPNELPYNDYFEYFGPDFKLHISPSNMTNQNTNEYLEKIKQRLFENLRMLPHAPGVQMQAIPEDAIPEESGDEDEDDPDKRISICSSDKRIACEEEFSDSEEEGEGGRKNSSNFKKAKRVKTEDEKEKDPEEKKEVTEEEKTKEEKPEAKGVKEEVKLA

Structure (SMILES)	inhibition at 10 µM [1] [%]	inhibition at 100 µM [1] [%]	inhibition at 10 µM [2] [%]	inhibition at 100 µM [2] [%]	inhibition at 10 µM [3] [%]	inhibition at 100 µM [3] [%]	inhibition at 10 µM [4] [%]	inhibition at 100 µM [4] [%]	Inhibition percentage (%) towards HDACs (HDACs; 40 μM) [%]	Inhibition percentage (%) towards HDACs (HDACs; 200 μM) [%]	Inhibition percentage (%) towards HDACs (HDACs; 2 mM) [%]	inhibition at 10 µM [5] [%]	inhibition at 100 µM [5] [%]	inhibition at 10 µM [6] [%]	inhibition at 100 µM [6] [%]	inhibition at 10 µM [7] [%]	inhibition at 100 µM [7] [%]	inhibition at 10 µM [8] [%]	inhibition at 100 µM [8] [%]	inhibition at 10 µM [9] [%]	further results
Nc1ccccc1NC(=O)c1ccc(Nc2ncnc3ccccc23)cc1 [Compound V-1, N-(2-aminophenyl)-4-(quinazoline-4-amino)benzamide]	36	67.2	48.5	79.3	50.6	89.7	26.7	87.5	9.4	19.8	65.2	33.7	78.3	2.6	37.4	22.4	30.8	79.5	91.5	40.2	inhibition at 100 µM [9]: 65.4%
Nc1ccc(F)cc1NC(=O)c1ccc(Nc2ncnc3ccccc23)cc1 [Compound V-3, N-(2-amino-5-fluorophenyl)-4-(quinazoline-4-amino)benzamide]	18.2	92.9	27.1	96	-7.8	72.3	4.5	85.5	9.5	36.0	78.2	-7.1	47.2	-12.3	59.2	51	85.1	0.6	36.9	5.7	inhibition at 100 µM [9]: 5.5%
COc1cccc2ncnc(Nc3ccc(C(=O)Nc4ccccc4N)cc3)c12 [Compound V-7, N-(2-aminophenyl)-4-(5-methoxy-quinazoline-4-amino)benzamide]	10.7	60.3	26.4	91	-7.4	24.9	-16.5	85.4	6.5	22.1	39.2	8.9	48.5	8.1	53.2	29.7	82.6	8.1	49.8	1.1	inhibition at 1 µM (HDAC1; 1 μM, read-out: % Inhibition towards HDAC1): 50.1%; inhibition at 10 µM (HDAC1; 10 μM, read-out: % Inhibition towards HDAC1): 78.4%; inhibitory activity against HDAC1 compared with MS-275 (HDAC1; both concentrations 10 μM and 1 μM): superior to that of MS-275; IC50 (HDACs): 3990 nM; inhibition at 100 µM [9]: 35.2%
COc1cc2ncnc(NCc3ccc(C(=O)Nc4cc(-c5cccs5)ccc4N)cc3)c2cc1OC [Compound V-31, N-[2-amino-5-(2-thienyl)phenyl]-4-[(6,7-dimethoxyquinazoline-4-amino)methyl]benzamide]	28.2	95.8	62.4	93.7	56.3	88.8	24.2	89.2	3.5	17.3	69.8	76.3	77	-5	51.7	27.9	67.7	6.3	38.8	20.8	inhibition at 100 µM [9]: 50.6%
COc1ccc2c(NCc3ccc(C(=O)Nc4ccccc4N)cc3)ncnc2c1 [Compound V-32, N-(2-aminophenyl)-4-[(7-methoxyquinazoline-4-amino)methyl]benzamide]									2.2	3.1	42.5										
COc1ccc2ncnc(NCc3ccc(C(=O)Nc4ccccc4N)cc3)c2c1 [Compound V-33, N-(2-aminophenyl)-4-[(6-methoxyquinazoline-4-amino)methyl]benzamide]									53.2	66.8	88.8										IC50 (HDACs): 1010 nM; inhibitory activity according to in vitro IC50 value against HDACs compared with MS-275 (HDACs): better inhibitory activities than MS-275; inhibitory activity on HDACs compared with MS-275 (HDACs): significantly stronger inhibitory activities than MS-275
COc1cccc2c(NCc3ccc(C(=O)Nc4cc(F)ccc4N)cc3)ncnc12 [Compound V-35, N-(2-amino-5-fluorophenyl)-4-[(8-methoxyquinazoline-4-amino)methyl]benzamide]									10.1	47.8	81.8										
Nc1ccccc1NC(=O)c1ccc(CNc2ncnc3ccc([N+](=O)[O-])cc23)cc1 [Compound V-37, N-(2-aminophenyl)-4-[(6-nitroquinazoline-4-amino)methyl]benzamide]									24.0	56.1	65.7										
COCCOc1cc2ncnc(NCc3ccc(C(=O)Nc4ccncc4N)cc3)c2cc1OCCOC [Compound V-39, N-(2-amino-4-pyridyl)-4-[(6,7-dimethoxyethoxyquinazoline-4-amino)methyl]benzamide]									34.3	58.0	85.3										
COc1cc2ncnc(NCc3ccc(C(=O)Nc4ccncc4N)cc3)c2cc1OCCCN1CCOCC1 [Compound V-42]									17.2	46.7	90.6										IC50 (HDACs): 1670 nM; inhibitory activity according to in vitro IC50 value against HDACs compared with MS-275 (HDACs): better inhibitory activities than MS-275; inhibitory activity on HDACs compared with MS-275 (HDACs): significantly stronger inhibitory activities than MS-275
CC(=O)Nc1ccc2ncnc(NCc3ccc(C(=O)Nc4cc(-c5ccco5)ccc4N)cc3)c2c1 [Compound V-48, N-[2-amino-5-(2-furyl)phenyl]-4-[(6-acetamidoquinazoline-4-amino)methyl]benzamide]	75.4	87.4	9.7	61.9	3.9	9.8	10	26.6	14.0	42.2	85.0	2.9	17.9	-14	20.5	20	57.2	-16.4	14.8	-2.2	inhibition at 100 µM [9]: 51.8%
